In paper PMC8151276, “An Integrated Approach toward NanoBRET Tracers for Analysis of GPCR Ligand Engagement” (Molecules, 2021):

How the values were obtained:
AGTR2 = biological target: T1, AGTR2 (Homo sapiens, UniProt P50052); experiment: NanoBRET screen HiBiT-AGTR2 in HEK293; assay type: binding
T1 construct: purchased Promega (in-house HiBiT-GPCR construct library, NanoBRET)
T1 sequence (P50052 1-363): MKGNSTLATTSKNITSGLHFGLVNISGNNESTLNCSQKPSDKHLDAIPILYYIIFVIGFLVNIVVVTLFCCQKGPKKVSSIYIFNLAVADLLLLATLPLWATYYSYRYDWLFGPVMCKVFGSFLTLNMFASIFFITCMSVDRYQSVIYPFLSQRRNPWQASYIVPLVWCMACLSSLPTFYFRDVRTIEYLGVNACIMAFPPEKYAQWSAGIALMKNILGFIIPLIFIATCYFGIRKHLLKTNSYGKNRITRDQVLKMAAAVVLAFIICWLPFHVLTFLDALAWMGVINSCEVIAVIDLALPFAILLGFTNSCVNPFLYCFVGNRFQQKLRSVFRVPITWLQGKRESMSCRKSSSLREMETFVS
Procedure: (§1) Each tracer candidate was screened across the entire library of HiBiT-GPCR constructs using NanoBRET as the detection modality. As depicted in Figure 4A, the specificity of interactions was evaluated through decrease in BRET due to competitive displacement of a bound tracer by excess parental compound. Each tracer was analyzed for binding to each HiBiT-GPCR fusion in the absence and in the presence of competing parental compound. Briefly, HEK293 cells were transfected with HiBiT-GPCR constructs diluted into promoterless DNA to reduce expression and maximize translocation to the cell surface. Each tracer candidate was then screened at concentrations of 1 μM and 0.1 μM across cells expressing these fusions. Cells were treated for 1.5 h with tracer either alone or in the presence of 20 μM competing parental compound (i.e., control). BRET was measured upon addition of purified LgBiT and subsequent complementation with HiBiT genetically fused to a GPCR. The specificity of interactions was assessed through a decrease in BRET signal due to competitive displacement of the bound tracer. To further gauge the robustness of these interactions, the fold response over the control (i.e., BRETtracer/BRETcontrol) was calculated. We chose a 1.5-fold response, which translates to ≥7-fold signal over noise as the minimal threshold required to score an interaction as positive. […]. Below we highlight the screening results obtained for our exemplary fluorescent tracers based on Clozapine, Amitriptyline and AZD1283.
(§2) HiBiT-GPCR DNA constructs were diluted in 10 mM Tris pH 8 to a final concentration of 0.01 μg/μL, arrayed in 96-well plates and stored at −20 °C. For transfection, HEK293 cells were suspended in Opti-MEM (without phenol red) supplemented with 2% fetal bovine serum (Seradigm) and 100 units/mL penicillin–streptomycin (Gibco) at a final concentration of 220,000 cells/mL and dispensed into white 96-well plates at 90 μL/well. Subsequent transfections and screens were carried using an Agilent Bravo Automated Liquid Handling Platform. First, the 96-well HiBiT DNA arrays were diluted 25-fold in Opti-MEM (without serum or phenol red) to a final concentration of 0.0004 μg/μL and 20 μL of the diluted DNAs were transferred into new 96-well plates. Next, promoterless carrier DNA (1 μg/μL) was diluted 25-fold (0.04 μg/μL) and then dispensed into the diluted arrays at 20 μL/well. Following brief mixing, Viafect transfection reagent (Promega) diluted 16-fold into Opti-MEM was dispensed into the plates at 40 μL/well. After mixing by pipetting, plates were incubated for 10 min on the pipetting station deck. The DNA-transfection reagent complexes were then added to plates containing cells. To facilitate the screen, 10 μL of DNA-transfection reagent complexes were added in duplicates to the top 4 and bottom 4 rows, resulting in two identical 48-well arrays per plate. Plates with transfected cells were incubated for 18–20 h at 37 °C/5% CO2. A screen of each tracer across the entire library using two different concentrations requires duplicate plates of transfected cells. Depending on the number of tracers being screened, transfections can be scaled up using the same ratios. The next day, for each tracer, four 20× screening solutions in tracer dilution buffer (Promega) were prepared: two duplicates at final concentration of 20 μM and two duplicates at a final concentration of 2 μM. A competing unmodified compound was added to one of each duplicate at a final concentration of 400 μM. The four resulting solutions were diluted 4-fold in Opti-MEM without serum or phenol red to generate 5× solutions (5 µM and 0.5 µM tracer +/− 100 μM competing compound). To screen the library, a BioTek MultiFlo FX liquid dispenser was used to dispense 22.5 µL of tracer solution to the top 4 rows and 22.5 µL tracer + competing compound solution to the 4 bottom rows. Plates were briefly mixed on an orbital shaker and incubated for 1.5 h at room temperature. […]

CCR9 = biological target: T2, CCR9 (Homo sapiens, UniProt P51686); experiment: NanoBRET screen HiBiT-CCR9 in HEK293; assay type: binding
T2 construct: purchased Promega (in-house HiBiT-GPCR construct library, NanoBRET)
T2 sequence (P51686 1-369): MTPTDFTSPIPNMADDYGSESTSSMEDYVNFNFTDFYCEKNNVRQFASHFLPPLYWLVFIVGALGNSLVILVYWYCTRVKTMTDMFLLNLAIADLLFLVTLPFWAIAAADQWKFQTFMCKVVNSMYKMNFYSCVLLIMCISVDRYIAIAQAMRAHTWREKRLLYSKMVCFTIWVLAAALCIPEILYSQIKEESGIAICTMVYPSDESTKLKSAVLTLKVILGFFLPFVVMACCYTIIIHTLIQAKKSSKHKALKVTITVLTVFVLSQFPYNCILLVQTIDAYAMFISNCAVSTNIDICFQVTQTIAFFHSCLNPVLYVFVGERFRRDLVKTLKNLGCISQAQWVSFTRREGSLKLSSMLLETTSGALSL
Procedure: as §1, §2

[1] = tracer at 1μM, listed as amitriptyline-b-2-NB590

Structure (SMILES) | NanoBRET Fold Response (AGTR2; AGTR2, tracer 0.1μM) | NanoBRET Fold Response (AGTR2; AGTR2, tracer 1μM) | NanoBRET Fold Response (CCR9; CCR9, tracer 0.1μM) | NanoBRET Fold Response (CCR9; CCR9, tracer 1μM) | also measured
Cc1nc2n(c(=O)c1CCN1CCC(c3noc4cc(F)ccc34)CC1)CCCC2OC(=O)NCCOCCOCCOCCOCCNC(=O)CCc1ccc2n1[B-](F)(F)[N+]1=C(c3ccc[nH]3)C=CC1=C2 (stereo not shown) [Risperidone-2-NB590] | 1.10 | 0.94 | 1.02 | 0.94 | 
CCOC(=O)c1cc(C#N)c(N2CCC(C(=O)NS(=O)(=O)Cc3ccccc3/C=C/C(=O)NCCNC(=O)CCc3ccc4n3[B-](F)(F)[N+]3=C(c5ccc[nH]5)C=CC3=C4)CC2)nc1C [AZD1283-1-NB590] |  |  |  |  | NanoBRET Fold Response (AGTR2; AGTR2, 0.1μM): 1.13; NanoBRET Fold Response (AGTR2; AGTR2, 1μM): 1.17; NanoBRET Fold Response (CCR9; CCR9, 0.1μM): 1.13; NanoBRET Fold Response (CCR9; CCR9, 1μM): 1.10
Cc1cc2c(s1)Nc1ccccc1N=C2N1CCN(CCCNC(=O)CCOCCOCCOCCOCCNC(=O)CCc2ccc3n2[B-](F)(F)[N+]2=C(c4ccc[nH]4)C=CC2=C3)CC1 [Olanzapine-a-2-NB590] | 1.12 | 0.87 | 1.03 | 1.17 | 
COc1ccccc1N1CCN(CCCCN2C(=O)c3ccc(CNC(=O)CCOCCNC(=O)c4ccc(CNC(=O)CCc5ccc6n5[B-](F)(F)[N+]5=C(c7ccc[nH]7)C=CC5=C6)cc4)cc3C2=O)CC1 [NAN-190-3-NB590] | 0.99 | 0.90 | 1.14 | 1.04 | 
CC(C)N(CC[C@H](c1ccccc1)c1cc(CCNC(=O)CCOCCOCCOCCOCCNC(=O)CCc2ccc3n2[B-](F)(F)[N+]2=C(c4ccc[nH]4)C=CC2=C3)ccc1O)C(C)C [Tolterodine-2-NB590] | 1.10 | 1.07 | 1.12 | 0.95 | 
CN(C)CCC=C1c2ccccc2CCc2ccc(C(=O)NCCNC(=O)CCOCCOCCOCCOCCNC(=O)CCc3ccc4n3[B-](F)(F)[N+]3=C(c5ccc[nH]5)C=CC3=C4)cc21 [Amitriptyline-b-2-NB590] |  |  |  |  | NanoBRET Fold Response (AGTR2; tracer at 0.1μM): 0.84; NanoBRET Fold Response (AGTR2; [1]): 0.87; NanoBRET Fold Response (CCR9; tracer at 0.1μM, listed as amitriptyline-b-2-NB590): 0.81; NanoBRET Fold Response (CCR9; [1]): 0.84
O=C(CCOCCOCCOCCOCCNC(=O)CCc1ccc2n1[B-](F)(F)[N+]1=C(c3ccc[nH]3)C=CC1=C2)NCCCN1CCN(C2=Nc3ccccc3Oc3ccc(Cl)cc32)CC1 [Loxapine-a-2-NB590] | 1.00 | 1.01 | 1.02 | 0.91 | 
CN(C)CCC=C1c2ccccc2CCc2ccc(C(=O)NCCNC(=O)CCOCCOCCOCCOCCNC(=O)CCc3ccc4n3[B-](F)(F)[N+]3=C(c5ccc[nH]5)C=CC3=C4)cc21 [Amitriptyline-a-2-NB590] |  |  |  |  | NanoBRET Fold Response (AGTR2; tracer at 0.1μM): 1.01; NanoBRET Fold Response (AGTR2; tracer at 1μM): 0.98; NanoBRET Fold Response (CCR9; tracer at 0.1μM): 0.99; NanoBRET Fold Response (CCR9; tracer at 1μM): 1.05
O=C(CCc1ccc2n1[B-](F)(F)[N+]1=C(c3ccc[nH]3)C=CC1=C2)NCCOCCOCCNC(=O)OCCOCCN1CCN(C2=Nc3ccccc3Sc3ccccc32)CC1 [Quetiapine-a-2-NB590] | 1.08 | 1.05 | 1.05 | 0.96 | 
COc1ccccc1N1CCN(CCCCN2C(=O)c3ccc(CNC(=O)CCOCCOCCOCCOCCNC(=O)CCc4ccc5n4[B-](F)(F)[N+]4=C(c6ccc[nH]6)C=CC4=C5)cc3C2=O)CC1 [NAN-190-2-NB590] | 1.02 | 0.98 | 0.98 | 0.99 | 
CN1CCN(C2=Nc3cc(Cl)ccc3N(CC(=O)NCCOCCOCCOCCOCCNC(=O)CCc3ccc4n3[B-](F)(F)[N+]3=C(c5ccc[nH]5)C=CC3=C4)c3ccccc32)CC1 [Clozapine-c-2-NB590] |  |  |  |  | NanoBRET Fold Response (AGTR2; AGTR2, 0.1μM tracer): 0.98; NanoBRET Fold Response (AGTR2; AGTR2, 1μM tracer): 0.98; NanoBRET Fold Response (CCR9; CCR9, 0.1μM tracer): 1.02; NanoBRET Fold Response (CCR9; CCR9, 1μM tracer): 0.87
COc1ccc2[nH]c(-c3ccc(CNC(=O)CCOCCOCCOCCOCCNC(=O)CCc4ccc5n4[B-](F)(F)[N+]4=C(c6ccc[nH]6)C=CC4=C5)cc3)c(CCNC(C)=O)c2n1 [AzomelatoninICO9-2-NB590] |  |  |  |  | NanoBRET Fold Response (AGTR2; 0.1μM tracer): 0.88; NanoBRET Fold Response (AGTR2; 1μM tracer): 0.95; NanoBRET Fold Response (CCR9; 0.1μM tracer): 0.97; NanoBRET Fold Response (CCR9; 1μM tracer): 0.89
O=C(CCOCCOCCOCCOCCNC(=O)CCc1ccc2n1[B-](F)(F)[N+]1=C(c3ccc[nH]3)C=CC1=C2)NCCCN1CCN(C2=Nc3cc(Cl)ccc3Nc3ccccc32)CC1 [Clozapine-a-2-NB590] |  |  |  |  | NanoBRET Fold Response (AGTR2; AGTR2, 0.1μM tracer): 1.02; NanoBRET Fold Response (AGTR2; AGTR2, 1μM tracer): 1.03; NanoBRET Fold Response (CCR9; CCR9, 0.1μM tracer): 1.03; NanoBRET Fold Response (CCR9; CCR9, 1μM tracer): 1.05
CCCn1c(=O)c2[nH]c(-c3ccc(OCC(=O)NCCNC(=O)CCOCCNC(=O)c4ccc(CNC(=O)CCc5ccc6n5[B-](F)(F)[N+]5=C(c7ccc[nH]7)C=CC5=C6)cc4)cc3)nc2n(CCC)c1=O [XAC-3-NB590] | 1.24 | 1.09 | 0.95 | 1.57 | 
O=C(CCc1ccc2n1[B-](F)(F)[N+]1=C(c3ccc[nH]3)C=CC1=C2)NCc1ccc(C(=O)NCCOCCOCCNCC(O)COc2cccc3ccccc23)cc1 (stereo not shown) [Propranolol-3-NB590] |  |  |  |  | NanoBRET Fold Response (AGTR2; AGTR2, 0.1μM): 0.95; NanoBRET Fold Response (AGTR2; AGTR2, 1μM): 0.99; NanoBRET Fold Response (CCR9; CCR9, 0.1μM): 1.08; NanoBRET Fold Response (CCR9; CCR9, 1μM): 1.00
O=C(CCc1ccc2n1[B-](F)(F)[N+]1=C(c3ccc[nH]3)C=CC1=C2)NCc1ccc(C(=O)NCCOCCC(=O)N[C@@H]2CC[C@@]3(O)[C@H]4Cc5ccc(O)c6c5[C@@]3(CCN4CC3CC3)[C@H]2O6)cc1 [Naltrexone-3-NB590] | 1.23 | 0.67 | 0.55 | 0.92 | 
CN(CCC=C1c2ccccc2CCc2ccccc21)C(=O)CCOCCOCCOCCOCCNC(=O)CCc1ccc2n1[B-](F)(F)[N+]1=C(c3ccc[nH]3)C=CC1=C2 [Amitriptyline-e-2-NB590] |  |  |  |  | NanoBRET Fold Response (AGTR2; tracer at 1μM): 0.97; NanoBRET Fold Response (CCR9; tracer at 1μM): 0.95
N#CN=C(NCCCOc1cccc(CN2CCCCC2)c1)NCCNC(=O)CCOCCOCCOCCOCCNC(=O)CCc1ccc2n1[B-](F)(F)[N+]1=C(c3ccc[nH]3)C=CC1=C2 [Aminopotentidine-2-NB590] | 0.98 | 1.04 | 1.09 | 1.11 | 
